Data on five compounds can be found in publication PMC8175350, “Drug repurposing screens identify chemical entities for the development of COVID-19 interventions” (Nature Communications, 2021).

Several values for one entry are separate records, joined by “and”; a condition that tells them apart may be missing. Identical values can stand only once. Counter-ions that a name gives are not always drawn. Like-named read-outs stand apart in the source and are kept apart here. Residues, ends and D or L forms follow the SMILES beside them. *: point of attachment. Cbz = O=C(OCc1ccccc1)*; CHN2 = [N-]=[N+]=C*

One series concerns COVID-19. To be noted: ref [9]; cited from earlier work.
Series [1] relates to SARS-CoV-2. As to the kind of experiment: microbe, parasite or virus in culture. The format is cell-based. Particulars: for EC50: Severe acute respiratory syndrome coronavirus 2, Calu-3, read-out: Calu-3 CoV-2 EC50 GeoMean.
The subject of series [2] is SARS-CoV-2. As to the kind of experiment: microbe, parasite or virus in culture. The format is cell-based. To be noted: for EC50: read-out: HeLa-ACE2 TOA CoV-2 EC50 GeoMean; for SARS-CoV-2 % infected cells: 10 µM after 1 h infection.
The subject of series [3] is Calu-3 cells.
A short description of series [4]: in vitro. Particulars: human.
Series [5] deals with Calu-3 cells. The experiment in a line: cells. Particulars: Homo sapiens.
A short description of series [6]: Uninfected HeLa-ACE2 24 h live/dead cytotoxicity counter screen. To be noted: human, uninfected HeLa-ACE2 cells, read-out: HeLa-ACE2 uninfected cytotoxicity CC50 GeoMean. It is filed as cell-based, human.
For series [7], the system named is HeLa-ACE2 cells. The series is described as above. The format is cell-based, human.
A short description of series [8]: in vitro. To be noted: human. The source holds these as a separate data set.
For series [9], the system named is HeLa-ACE2 cells. As to the kind of experiment: cells. Particulars: Homo sapiens; for Emax: HeLa-ACE2, 24 h, read-out: HeLa-ACE2 cell count Sinf Average.
Series [10] deals with HeLa-ACE2 cells. The experiment in a line: Total cell count in the HeLa-ACE2 TOA (time of addition) assay. It is filed as cell-based, human. Particulars: Homo sapiens, HeLa-ACE2; read-out: HeLa-ACE2 TOA cell count EC50 GeoMean.
Series [11] deals with SARS-CoV-2. As to the kind of experiment: microbe, parasite or virus in culture. It is filed as cell-based. To be noted: for Emax: Severe acute respiratory syndrome coronavirus 2, HeLa-ACE2, 24 h, read-out: HeLa-ACE2 CoV-2 Sinf Average; for EC50: read-out: HeLa-ACE2 CoV-2 EC50 GeoMean; for HeLa-ACE2 SI: selectivity index, uninfected HeLa-ACE2 CC50 / SARS-CoV-2 EC50.
Series [12] can be described thus: in vitro. Particulars: human, Calu-3 uninfected cytotoxicity CC50 GeoMean.
Series [13] deals with SARS-CoV-2. The format is cell-based. Particulars: combination with remdesivir.
In series [14] the test system is HEK293T. The experiment in a line: HEK293T 72 h CellTiter-Glo cytotoxicity. Particulars: 72 h. A general note: In ATP-based viability assays light output follows the ATP content of the culture.
Series [15] can be described thus: HEK293T 72 h CellTiter-Glo cytotoxicity. To be noted: human, HEK293T cells.
Series [16] in a line: HepG2 72 h CellTiter-Glo cytotoxicity. Particulars: human, HepG2 cells.
Series [17] concerns HepG2. The experiment in a line: HepG2 72 h CellTiter-Glo cytotoxicity. Particulars: 72 h.
Series [18] can be described thus: Uninfected Calu-3 48 h Cell-Titer Glo cytotoxicity counter screen. Particulars: human, uninfected Calu-3 cells, Calu-3 uninfected cytotoxicity CC50 GeoMean.
The subject of series [19] is Calu-3 cells. Described as above. To be noted: human, uninfected Calu-3 cells, 48 h.
Series [20] concerns HeLa-ACE2 cells. The experiment in a line: cells. The format is cell-based, human. Particulars: Homo sapiens, HeLa-ACE2; read-out: HeLa-ACE2 TOA cell count EC50 GeoMean.
Series [21] relates to HepG2. To be noted: human, 72 h.
Series [22] deals with HEK293T. To be noted: human, 72 h.
The mark [23] stands for this setting: Severe acute respiratory syndrome coronavirus 2, HeLa-ACE2, detail column.
The mark [24] stands for this setting: Calu-3, read-out: Calu-3 cell count EC50 GeoMean.
[25] abbreviates: human, uninfected HeLa-ACE2 cells, 24 h.
The mark [26] stands for this setting: HeLa-ACE2, read-out: HeLa-ACE2 cell count EC50 GeoMean.
Where [27] appears, read: Severe acute respiratory syndrome coronavirus 2, HeLa-ACE2, detail block.
Where [28] appears, read: curve plateau at infinite concentration.

interferon: in the series with COVID-19, the “mortality of hospitalized COVID-19 patients” value is reported as “failed to reduce mortality”.

As to `CC(C)CC(NC(=O)OCc1ccccc1)C(=O)NC(C(=O)NCC(=O)C=[N+]=[N-])C(C)C` (stereo not drawn) [Z LVG CHN2] (Cbz-Leu-Val-Gly-CHN2; configuration not given here), the EC50 is over 9.98 µM with SARS-CoV-2 [1]; over 9.59 µM with SARS-CoV-2 [2] (setting [23]); over 9.98 µM with Calu-3 cells [5] (setting [24]); over 9.59 µM in the series with HeLa-ACE2 cells [9] (setting [26]); over 9.59 µM in the series on HeLa-ACE2 cells [10]; 0.072 µM in the series on SARS-CoV-2 [11] (setting [23]). Moreover, the “TOA:HeLa-ACE2 EC50 Ratio” value with SARS-CoV-2 [2] is reported as 133.491. For the same compound, the “uninfected Calu-3 CC50” value with Calu-3 cells [3] was > 29.867 ×÷ 1.001 (n=3) μM. Moreover, the CC50 at 72 h in the series “in vitro [4]” and in the series “in vitro [8]” was over 39.8 µM throughout. Moreover, in series [6], the CC50 at 24 h is over 39.8 µM. Moreover, in the series with HeLa-ACE2 cells [7] (setting [25]), the “HeLa-ACE2 uninfected cytotoxicity Sinf Average” value is listed as -100%. Moreover, the Emax in the series on SARS-CoV-2 [11] stood at 87%. Further, the “HeLa-ACE2 SI” value in the series on SARS-CoV-2 [11] is given as over 554.29. The CC50 at 48 h in “in vitro [12]” was over 29.9 µM.

With `CCOC(=O)[C@@H]1O[C@H]1C(=O)N[C@@H](CC(C)C)C(=O)N1CCN(Cc2ccc(OC)c(OC)c2OC)CC1` [NCO 700], the “HeLa-ACE2 synergy score with remdesivi” value with SARS-CoV-2 [13] was 0.209 δ. For the same compound, the EC50 was over 9.98 µM with SARS-CoV-2 [1]; over 9.59 µM in the series with SARS-CoV-2 [2] (setting [23]); over 9.98 µM in the series on Calu-3 cells [5] (setting [24]); over 5.08 µM with HeLa-ACE2 cells [9] (setting [26]); over 9.59 µM in the series on HeLa-ACE2 cells [10]; 0.79 µM with SARS-CoV-2 [11] (setting [23]). Also, in the series with SARS-CoV-2 [2], the “TOA:HeLa-ACE2 EC50 Ratio” value was determined as 12.146. In addition, in the series with Calu-3 cells [3], the “uninfected Calu-3 CC50” value is > 29.867 ×÷ 1.001 (n=3) μM. Further, the CC50 at 72 h in “in vitro [4]” and in “in vitro [8]” was over 39.8 µM in each case. For the same compound, the CC50 at 24 h in [6] was over 39.8 µM. Also, the values for the Emax with HeLa-ACE2 cells [9] and with SARS-CoV-2 [11] were -26% and 90%, respectively. In the series with SARS-CoV-2 [11], the “HeLa-ACE2 SI” value was over 50.44. Also, in the series “in vitro [12]”, the CC50 at 48 h is over 29.9 µM.

Turning to `CCN(CCO)CCCC(C)Nc1ccnc2cc(Cl)ccc12` (stereo not drawn) [Hydroxychloroquine sulfate], the “HEK293T 72-hour cytotoxicty Sinf Average” value in the series with HEK293T [14] is given as -101%. Moreover, the CC50 at 72 h turned out to be 10.1 µM in series [15] and 3.62 µM in series [16]. The “HeLa-ACE2 synergy score with remdesivi” value in the series with SARS-CoV-2 [13] is -1.572 δ. Moreover, the “HepG2 72-hour cytotoxicity Sinf Average” value in the series on HepG2 [17] is given as -100%. The EC50 was over 9.99 µM with SARS-CoV-2 [1]; over 9.61 µM with SARS-CoV-2 [2] (setting [23]); over 9.99 µM with Calu-3 cells [5] (setting [24]); over 5.88 µM in the series with HeLa-ACE2 cells [9] (setting [26]); over 9.61 µM in the series with HeLa-ACE2 cells [10]; 0.458 µM in the series with SARS-CoV-2 [11] (setting [23]). Besides, the “TOA:HeLa-ACE2 EC50 Ratio” value in the series with SARS-CoV-2 [2] is given as 20.968. Also, the “SARS-CoV-2 % infected cells” value in the series with SARS-CoV-2 [2] (4:00:00 post infection) was 0.3802% and 0.1721% and 0.1129%; with SARS-CoV-2 [2] (5:00:00), 0.24% and 0.7413% and 0.2751%; in the series on SARS-CoV-2 [2] (6:00:00) it was 11.7654% and 10.6398% and 10.3646%; with SARS-CoV-2 [2] (7:00:00), 25.8166% and 25.8417% and 29.0337%; in the series with SARS-CoV-2 [2] (8:00:00), 31.116% and 29.6088% and 30.8104%; with SARS-CoV-2 [2] (10:00:00), 33.0276% and 34.8116% and 35.0891%. The “SARS-CoV-2 % infected cells” value with SARS-CoV-2 [2] (11:00:00) was 35.46% and 36.5434% and 36.8817%; in the series on SARS-CoV-2 [2] (12:00:00) it was 33.0004% and 35.9224% and 38.4986%; in the series with SARS-CoV-2 [2] (24:00:00), 45.3401% and 44.0948% and 41.0805%. Besides, the “activity when treatment was initiated at 1 hpi” value with SARS-CoV-2 [2] (HeLa-ACE2, 10 µM) is “Loss of activity”. Further, the cytotox with Calu-3 cells [3] (human) stood at 13.7874. Besides, the “mortality of hospitalized COVID-19 patients” value in the series on COVID-19 is on record as “failed to reduce mortality”. In addition, the CC50 at 24 h in [6] is over 18.3 µM. In the series on HeLa-ACE2 cells [7] (setting [25]), the “HeLa-ACE2 uninfected cytotoxicity Sinf Average” value is given as -99%. In addition, the CC50 at 48 h in series [18] was over 24.7 µM. For the same compound, the “Calu-3 uninfected cytotoxicity Sinf Average” value in the series with Calu-3 cells [19] is given as -100%. In addition, the values for the Emax with HeLa-ACE2 cells [9] and in the series with SARS-CoV-2 [11] were -47% and 100%, respectively. Also, the “HeLa-ACE2 SI” value in the series on SARS-CoV-2 [11] is recorded as over 40.04.

Take `Oc1ccc(Nc2ccnc3cc(Cl)ccc23)cc1CN1CCCC1` [Amopyroquine]: the EC50 is over 9.59 µM in the series with HeLa-ACE2 cells [20]; over 9.98 µM with SARS-CoV-2 [1] (detail block); over 9.59 µM in the series with SARS-CoV-2 [2] (setting [27]); over 9.98 µM in the series with Calu-3 cells [5] (Calu-3, read-out: Calu-3 cell count EC50 GeoMean, detail block); over 9.59 µM with HeLa-ACE2 cells [9] (HeLa-ACE2, read-out: HeLa-ACE2 cell count EC50 GeoMean, detail block); 0.904 µM in the series with SARS-CoV-2 [11] (setting [27]). For the same compound, the Emax in the series on SARS-CoV-2 [1] (Severe acute respiratory syndrome coronavirus 2, Calu-3, 48 h, curve plateau at infinite concentration, read-out: Calu-3 CoV-2 Sinf Average) was determined as 100%; in the series with SARS-CoV-2 [2] (Severe acute respiratory syndrome coronavirus 2, HeLa-ACE2, 10 h, curve plateau at infinite concentration, read-out: HeLa-ACE2 TOA CoV-2 Sinf Average) it was 100%; with SARS-CoV-2 [11] (setting [28]), 100%. For the same compound, the “Calu-3 SI” value with SARS-CoV-2 [1] (selectivity index, uninfected Calu-3 CC50 / Calu-3 SARS-CoV-2 EC50) was 1.87. In addition, in the series with SARS-CoV-2 [2] (TOA EC50 / HeLa-ACE2 SARS-CoV-2 EC50), the “TOA:HeLa-ACE2 EC50 Ratio” value came to 10.603. In addition, in the series with Calu-3 cells [3], the “uninfected Calu-3 CC50” value is given as 18.669 ×÷ 1.171 (n=3) μM. Also, the “Calu-3 uninfected cytotoxicity Sinf Average” value in the series with Calu-3 cells [3] (human, 48 h) is -96%. Besides, the CC50 at 72 h in “in vitro [4]” stood at 6.39 µM; in “in vitro [8]”, 6.31 µM. For the same compound, the “HepG2 72-hour cytotoxicity Sinf Average” value in the series on HepG2 [21] was -102%. Also, the CC50 at 24 h in [6] (detail block) is 17.2 µM. In addition, the “HeLa-ACE2 uninfected cytotoxicity Sinf Average” value with HeLa-ACE2 cells [7] (setting [28]) was -100%. Moreover, the “HEK293T 72-hour cytotoxicty Sinf Average” value in the series on HEK293T [22] is recorded as -103%. The “HeLa-ACE2 SI” value in the series with SARS-CoV-2 [11] came to 19.02. This compound gave a CC50 at 48 h in “in vitro [12]” of 18.7 µM.

What is called EC50 is the concentration that produces a half-maximal response.
